Source: the NIST ThermoML archive (doi:10.1021/acs.jced.9b00371)

Settings: Liquid, Brillouin light scattering method

CCCCCCCC(=O)OC [methyl octanoate]
Settings | speed of sound [m/s]
298.22 K, 7000 kPa | 1316.3
298.3 K, 10010 kPa | 1327.9
298.44 K, 1010 kPa | 1292.1
298.44 K, 5000 kPa | 1307.1
298.6 K, 3000 kPa | 1298.2
298.84 K, 90 kPa | 1274.5
308.25 K, 3010 kPa | 1258.8
308.37 K, 10010 kPa | 1291.2
308.42 K, 100 kPa | 1236.4
308.49 K, 7010 kPa | 1280.4
308.52 K, 1010 kPa | 1248.8
308.58 K, 5010 kPa | 1270.1
318.18 K, 5010 kPa | 1221.3
318.56 K, 7020 kPa | 1229.5
318.76 K, 10010 kPa | 1242.4
318.91 K, 3010 kPa | 1208
319.59 K, 110 kPa | 1192.3
319.89 K, 1010 kPa | 1194.5
327.96 K, 5010 kPa | 1186
328.11 K, 3020 kPa | 1171.3
328.36 K, 100 kPa | 1158
328.69 K, 7010 kPa | 1191.4
328.82 K, 10010 kPa | 1209.9
328.88 K, 1010 kPa | 1155.4
337.63 K, 100 kPa | 1121.6
337.88 K, 7010 kPa | 1157.9
338.43 K, 1010 kPa | 1125.5
338.46 K, 10010 kPa | 1174.8
338.47 K, 5000 kPa | 1147.2
338.96 K, 3000 kPa | 1134.3
347.39 K, 3000 kPa | 1104.6
347.87 K, 10010 kPa | 1148.4
348.45 K, 110 kPa | 1078.6
348.54 K, 5020 kPa | 1109.1
348.77 K, 7000 kPa | 1120.5
348.8 K, 1000 kPa | 1085.5
357.69 K, 3010 kPa | 1071.8
357.74 K, 5000 kPa | 1079.2
357.91 K, 10000 kPa | 1112.7
358.16 K, 100 kPa | 1044.6
358.25 K, 7000 kPa | 1095.1
358.56 K, 1010 kPa | 1049.3
367.26 K, 5000 kPa | 1049.2
367.28 K, 3000 kPa | 1038.1
367.29 K, 110 kPa | 1015.5
367.47 K, 10010 kPa | 1078.4
367.73 K, 7010 kPa | 1060.7
368.05 K, 1000 kPa | 1017.5
377.8 K, 1000 kPa | 989.1
378.03 K, 7000 kPa | 1027.3
378.16 K, 4990 kPa | 1013.1
378.27 K, 100 kPa | 975.6
378.29 K, 10000 kPa | 1047.1
378.6 K, 3000 kPa | 1000.4
387.15 K, 110 kPa | 947.3
387.64 K, 3000 kPa | 964.7
387.88 K, 10010 kPa | 1017.7
388.01 K, 7000 kPa | 991.8
388.02 K, 1000 kPa | 952.1
388.04 K, 5000 kPa | 978.4
397.22 K, 1010 kPa | 922.4
397.37 K, 3010 kPa | 934
397.49 K, 10010 kPa | 988
397.57 K, 7010 kPa | 963.7
397.59 K, 5010 kPa | 949.2
397.71 K, 100 kPa | 910.7
407.84 K, 5010 kPa | 916.3
408.01 K, 10010 kPa | 954.1
408.03 K, 3000 kPa | 896.1
408.14 K, 100 kPa | 873.1
408.48 K, 7010 kPa | 933.8
409.43 K, 1000 kPa | 879.8
417.31 K, 1010 kPa | 850.6
417.49 K, 110 kPa | 841.4
417.49 K, 5000 kPa | 885.5
417.57 K, 7000 kPa | 904.2
417.65 K, 10000 kPa | 925.4
417.75 K, 3000 kPa | 867.9
427.78 K, 110 kPa | 811.6
427.88 K, 7010 kPa | 873.7
427.9 K, 1010 kPa | 822.3
427.93 K, 3010 kPa | 837.5
427.94 K, 10010 kPa | 899.7
427.95 K, 5010 kPa | 855.8
438.55 K, 100 kPa | 775.1
438.61 K, 1000 kPa | 780.2
438.61 K, 10010 kPa | 866.1
438.81 K, 7000 kPa | 838.7
438.87 K, 5000 kPa | 823.4
438.94 K, 3010 kPa | 803.1
447.87 K, 1010 kPa | 754.6
447.88 K, 5000 kPa | 793.5
447.92 K, 7000 kPa | 813.8
447.96 K, 3010 kPa | 776.7
447.96 K, 10000 kPa | 841
448.01 K, 110 kPa | 744.4
457.92 K, 1000 kPa | 724.7
458.07 K, 5010 kPa | 760.9
458.12 K, 7010 kPa | 782.2
458.17 K, 3000 kPa | 744.1
458.18 K, 10010 kPa | 810.7
467.43 K, 10010 kPa | 784.5
467.58 K, 7010 kPa | 759.7
467.9 K, 5000 kPa | 738.9
468.47 K, 1010 kPa | 694.8
468.68 K, 3000 kPa | 713.7
476.82 K, 5010 kPa | 710.8
477 K, 10010 kPa | 759.6
477.06 K, 1000 kPa | 665
477.26 K, 7010 kPa | 729
477.88 K, 3010 kPa | 685.8
486.8 K, 1000 kPa | 631
486.87 K, 3000 kPa | 654.3
486.92 K, 5010 kPa | 682
486.96 K, 7010 kPa | 700
487 K, 10010 kPa | 738.2
498.13 K, 3010 kPa | 625.4
498.28 K, 7000 kPa | 667.5
498.28 K, 10000 kPa | 705
498.41 K, 5000 kPa | 644.1
498.83 K, 1000 kPa | 596.6
507.85 K, 1010 kPa | 568.9
507.87 K, 7000 kPa | 646.1
507.89 K, 3010 kPa | 596.3
507.91 K, 5010 kPa | 620.4
507.91 K, 10000 kPa | 680.6
517.71 K, 3000 kPa | 567.5
517.73 K, 1000 kPa | 534.7
517.79 K, 7000 kPa | 619
517.81 K, 5000 kPa | 594.2
518.17 K, 10000 kPa | 658.9
527.51 K, 7010 kPa | 600
527.6 K, 1010 kPa | 500
527.66 K, 3010 kPa | 537.5
528.05 K, 10000 kPa | 631.9
528.28 K, 5010 kPa | 569.1
537.38 K, 1000 kPa | 472.9
537.57 K, 7000 kPa | 569.9
537.63 K, 3010 kPa | 511.3
537.67 K, 5000 kPa | 543.3
537.72 K, 9990 kPa | 609.6
547.06 K, 1000 kPa | 438.8
547.13 K, 5010 kPa | 516
547.47 K, 10010 kPa | 583.9
547.67 K, 7000 kPa | 544
547.87 K, 3000 kPa | 480.9
557.84 K, 1000 kPa | 403.8
557.94 K, 5010 kPa | 489.3
558.16 K, 7000 kPa | 515.9
558.18 K, 10010 kPa | 561.2
558.2 K, 3000 kPa | 448
567.35 K, 1010 kPa | 371.2
567.7 K, 5000 kPa | 461
567.81 K, 7000 kPa | 495.4
567.91 K, 3010 kPa | 418.8
567.95 K, 10010 kPa | 543.8
577.4 K, 3010 kPa | 389.4
577.79 K, 5000 kPa | 432.1
577.89 K, 7000 kPa | 469.8
578.16 K, 10000 kPa | 522.9
587.88 K, 3000 kPa | 361.9
588.02 K, 5010 kPa | 411.1
588.47 K, 7010 kPa | 450.4
597.58 K, 3000 kPa | 331.4
598.07 K, 7000 kPa | 426.9
598.29 K, 5010 kPa | 384.1
608.09 K, 7010 kPa | 400.7
608.23 K, 5000 kPa | 353.7
608.38 K, 3000 kPa | 294.3
